As usually defined, the Cmax is the highest concentration seen after dosing. By AUC is commonly meant concentration integrated over time.

Data on one compound can be found in patent US10945992B1, “Dosage forms of rofecoxib and related methods” (Tremeau Pharmaceuticals, Inc., priority 2019, dated 2021).

The data set is described as follows: TRM-201-PK-101 single-dose pharmacokinetic study, 25 mg, fasted healthy subjects. The format is in vivo, human. As to conditions: for Cmax / AUC(0-inf) / AUC: human, plasma, oral. The procedure: A Single-Dose, Open-Label, Phase 1, Adaptive Pharmacokinetic Study of TRM-201 (Rofecoxib) 25 mg Administered to Healthy Subjects in a Fasting State, with Comparison to Historical Pharmacokinetic Parameters of Previously Marketed Rofecoxib and a Food-Effect Substudy (“TRM-201-PK-101” or “101 PK Study”)
This is a single-center, open-label, adaptive PK study of TRM-201 consisting of a MAIN study with a PILOT portion conducted under a fasted condition, and a two-period crossover, FOOD-EFFECT sub study under both fasted and fed conditions. The PILOT portion of the study (21 subjects) will include a single dose of TRM-201 in a single group to assess the PK of TRM-201 in healthy volunteers under fasted conditions. Following completion of the PILOT portion and the decision to move forward, an additional 16 subjects will be enrolled in the MAIN study and an additional 16 subjects will be enrolled in the FOOD-EFFECT sub study. The MAIN study will include a single dose of TRM-201 to assess the PK of TRM-201 in healthy volunteers under fasted conditions. The FOOD-EFFECT sub study is a single-dose, two-period crossover study. A single dose of TRM-201 will be given on Day 1 of each dosing period to assess the PK of TRM-201 in healthy volunteers under both fasted and fed conditions. Subjects will be randomized 1:1 into the two sequences fasted followed by fed, and fed followed by fasted.
After Check-In, subjects will fast overnight for at least 10 hours before study drug administration. While fasting, subjects will have nothing to eat and only water to drink. Water will be permitted as desired, except for the period between 1 hour before and 1 hour after study drug dosing (excepting as permitted for dosing). After the 2-hour PK blood sample, subjects will be allowed one 250-mL cup of clear apple juice. After the 4-hour PK blood sample, subjects will be served a light lunch. Following the light lunch, subjects should receive standardized meals according to the clinic's standard procedures that are scheduled at consistent times and at least 15 minutes before or 15 minutes after PK sampling time points. Blood will be withdrawn for PK analysis at predefined time points as defined in Table 8. The last time point will be 120 hours after dosing with study drug. After the 120-hour PK sample, the EOS procedures will be completed, and subjects will be discharged from the clinic.
This is an open-label PK study. Each subject is scheduled to receive a single 25-mg dose of TRM-201 in the PILOT portion and the MAIN study, and a single 25-mg dose of TRM-201 twice in the FOOD-EFFECT sub study. TRM-201 manufactured and formulated as Batch 5 (B18090) and Batch 6 (B18091), above, will be used in the study.
The time points and windows for PK blood sampling for the PILOT portion, Main study and FOOD-EFFECT substudy are presented in Table 14 below. For each sample, approximately 3 mL of blood will be drawn. The samples may be obtained by a straight stick or via an in-dwelling intravenous (IV) catheter in a forearm vein. Additional details for the collection, processing, storage, and shipping of PK samples will be provided in the study manual.
Pharmacokinetic samples will be analyzed using a validated assay for rofecoxib in human plasma. Assay results and validation details will be provided in a separate bioanalytical report.
The following PK parameters for rofecoxib will be calculated as primary endpoints using standard noncompartmental methods for both the PILOT portion and MAIN study, and the FOOD-EFFECT sub study: AUC0-∞ and Cmax. Secondary endpoints include Tmax, and t1/2. Additional PK parameters (e.g., CL/F, and Vd/F) will also be calculated using standard noncompartmental methods.
The PK parameters of rofecoxib will be analyzed based on the actual sampling times. All parameters will be calculated using the Phoenix® WinNonlin® version 6.4 or higher (Certara USA Inc., Princeton, N.J.) or SAS® version 9.3 or higher (SAS Institute Inc., Cary, N.C.). […]

[1] abbreviates: 25 mg, versus Schwartz data, FIG. 28.

Where two headings read alike, the source gives them in different places.

As to `CS(=O)(=O)c1ccc(C2=C(c3ccccc3)C(=O)OC2)cc1` [TRM-201, 4-[4-(methylsulfonyl)phenyl]-3-phenyl-2(5H)-furanone], the “AUC0-∞ compared to historical data” value under setting [1] is reported as “larger”. Further, the “Cmax compared to historical data” value under setting [1] is “higher”. In addition, the Cmax is roughly 238 ng/mL (17.5 mg, 17.5 mg formulation, estimated from 101 data, read-out: estimated Cmax); 223 ng/mL (17.5 mg, extrapolated from 25 mg assuming dose linearity, read-out: extrapolated Cmax); roughly 266 ng/mL (20 mg, 20 mg formulation, estimated from 101 data, read-out: estimated Cmax); 254 ng/mL (20 mg, extrapolated from 25 mg assuming dose linearity, read-out: extrapolated Cmax); 320 ng/mL (25 mg, 25 mg formulation in TRM-201-PK-101, as stated in Example 6, read-out: Geometric mean Cmax); 318 ng/mL (25 mg, fasted, FIG. 25, read-out: geometric mean Cmax). Also, the AUC(0-inf) runs as follows: (17.5 mg, extrapolated from 25 mg assuming dose linearity, read-out: extrapolated AUC0-∞) 3250 ng·h/mL; (20 mg, extrapolated from 25 mg assuming dose linearity, read-out: extrapolated AUC0-∞) 3710 ng·h/mL; (25 mg, fasted, FIG. 25, read-out: geometric mean AUC0-∞) 4640 ng·h/mL. The AUC was roughly 3280 ng·h/mL (17.5 mg formulation, estimated from 101 data, read-out: estimated AUC); roughly 3740 ng·h/mL (20 mg formulation, estimated from 101 data, read-out: estimated AUC); 4680 ng·h/mL (25 mg formulation in TRM-201-PK-101, as stated in Example 6, read-out: Geometric mean AUC).
